Experimental data: patent US9930892B2, “Molecules having pesticidal utility, and intermediates, compositions, and processes, related thereto” (Dow AgroSciences LLC, priority 2016, dated 2018)

Experiments:
Assay type in all cases: in vivo
[1] = test system: Beet Armyworm (Spodoptera exigua); test: Bioassay on Beet Armyworm (BAW), 128-well diet tray assay; settings: 50 μg/cm^2 on artificial diet, second instar larvae, five to seven days, 25° C.
Protocol: Bioassays on BAW were conducted using a 128-well diet tray assay. One to five second instar BAW larvae were placed in each well (3 mL) of the diet tray that had been previously filled with 1 mL of artificial diet to which 50 μg/cm^2 of the test molecule (dissolved in 50 μL of 90:10 acetone-water mixture) had been applied (to each of eight wells) and then allowed to dry. Trays were covered with a clear self-adhesive cover and held at 25° C., 14:10 light-dark for five to seven days. Percent mortality was recorded for the larvae in each well; activity in the eight wells was then averaged. The results are indicated in the table entitled “Table ABC: Biological Results” (See Table Section).
(§1) Bioassays on BAW and CL were conducted according to the procedures outlined in Example A: Bioassays on Beet Armyworm (“BAW”) and Cabbage Looper (“CL”) using the indicated concentrations.

[2] = test system: Cabbage Looper (Trichoplusia ni); test: Bioassay on Cabbage Looper (CL), 128-well diet tray assay; settings: 50 μg/cm^2 on artificial diet, second instar larvae, five to seven days, 25° C.
Protocol: Bioassays on CL were conducted using a 128-well diet tray assay. One to five second instar CL larvae were placed in each well (3 mL) of the diet tray that had been previously filled with 1 mL of artificial diet to which 50 μg/cm^2 of the test molecule (dissolved in 50 μL of 90:10 acetone-water mixture) had been applied (to each of eight wells) and then allowed to dry. Trays were covered with a clear self-adhesive cover and held at 25° C., 14:10 light-dark for five to seven days. Percent mortality was recorded for the larvae in each well; activity in the eight wells was then averaged. The results are indicated in the table entitled “Table ABC: Biological Results” (See Table Section).
as §1

[3] = test system: Yellow Fever Mosquito (Aedes aegypti); settings: 4000 ppm master plate solution diluted, about 1 day-old larvae, scored on mortality after 3 days
Protocol: Master plates containing 400 μg of a molecule dissolved in 100 μL of dimethyl sulfoxide (DMSO) (equivalent to a 4000 ppm solution) are used. A master plate of assembled molecules contains 15 μL per well. To this plate, 135 μL of a 90:10 water:acetone mixture is added to each well. A robot (Biomek® NXP Laboratory Automation Workstation) is programmed to dispense 15 μL aspirations from the master plate into an empty 96-well shallow plate (“daughter” plate). There are 6 reps (“daughter” plates) created per master. The created daughter plates are then immediately infested with YFM larvae.
The day before plates are to be treated, mosquito eggs are placed in Millipore water containing liver powder to begin hatching (4 g. into 400 mL). After the daughter plates are created using the robot, they are infested with 220 μL of the liver powder/larval mosquito mixture (about 1 day-old larvae). After plates are infested with mosquito larvae, a non-evaporative lid is used to cover the plate to reduce drying. Plates are held at room temperature for 3 days prior to grading. After 3 days, each well is observed and scored based on mortality. The results are indicated in the table entitled “Table ABC: Biological Results” (See Table Section).

[4] = test system: Green Peach Aphid (Myzus persicae); test: Bioassay on Green Peach Aphid (GPA), foliar spray on cabbage seedlings; settings: 200 ppm spray on cabbage seedlings, graded after three days, Abbott corrected % control
Protocol: Cabbage seedlings grown in 3-inch pots, with 2-3 small (3-5 cm) true leaves, were used as test substrate. The seedlings were infested with 20-50 GPA (wingless adult and nymph stages) one day prior to chemical application. Four pots with individual seedlings were used for each treatment. Test molecules (2 mg) were dissolved in 2 mL of acetone/methanol (1:1) solvent, forming stock solutions of 1000 ppm test molecule. The stock solutions were diluted 5× with 0.025% Tween 20 in water to obtain the solution at 200 ppm test molecule. A hand-held aspirator-type sprayer was used for spraying a solution to both sides of […] leaves until runoff. Reference plants (solvent check) were sprayed with the diluent only containing 20% by volume of acetone/methanol (1:1) solvent. Treated plants were held in a holding room for three days at approximately 25° C. and ambient relative humidity (RH) prior to grading. Evaluation was conducted by counting the number of live aphids per plant under a microscope. Percent Control was measured by using Abbott's correction formula (W. S. Abbott, “A Method of Computing the Effectiveness of an Insecticide” J. Econ. Entomol. 18 (1925), pp. 265-267) as follows. Corrected % Control=100*(X−Y)/X • where • X=No. of live aphids on solvent check plants and • Y=No. of live aphids on treated plants

| Structure (SMILES) | BAW % Control (or Mortality) rating [1] | CL % Control (or Mortality) rating [2] | YFM % Control (or Mortality) rating [3] | GPA % Control (or Mortality) rating [4] |
| --- | --- | --- | --- | --- |
| O=C(CCC(F)(F)F)NNC(=O)c1ccc(/C(F)=C/C(c2cc(Cl)c(Br)c(Cl)c2)C(F)(F)F)cc1C(F)(F)F (stereo not shown) [F27, (Z)-4-(3-(4-Bromo-3,5-dichlorophenyl)-1,4,4,4-tetrafluorobut-1-en-1-yl)-N′-(4,4,4-trifluorobutanoyl)-2-(trifluoromethyl)benzohydrazide] | A (50-100) | A (50-100) | A (80-100) | – |
| Cc1cc(C(/C=C(\F)c2ccc(C(=O)NN(C)C(=O)NCC(F)(F)F)c(C(F)(F)F)c2)C(F)(F)F)cc(C)c1Cl (stereo not shown) [F16, (Z)-2-(4-(3-(4-Chloro-3,5-dimethylphenyl)-1,4,4,4-tetrafluorobut-1-en-1-yl)-2-(trifluoromethyl)benzoyl)-1-methyl-N-(2,2,2-trifluoroethyl)hydrazinecarboxamide] | A (50-100) | A (50-100) | A (80-100) | – |
| CN(NC(=O)c1ccc(/C(F)=C/C(c2cc(Br)cc(Br)c2)C(F)(F)F)cc1C(F)(F)F)C(=O)NCC(F)(F)F (stereo not shown) [F14, (Z)-2-(4-(3-(3,5-dibromophenyl)-1,4,4,4-tetrafluorobut-1-en-1-yl)-2-(trifluoromethyl)benzoyl)-1-methyl-N-(2,2,2-trifluoroethyl)hydrazinecarboxamide] | A (50-100) | A (50-100) | A (80-100) | – |
| O=C(CCC(F)(F)F)NNC(=O)c1ccc(/C(F)=C/C(c2cc(Cl)c(F)c(Cl)c2)C(F)(F)F)cc1C(F)(F)F (stereo not shown) [F10, (Z)-4-(3-(3,5-Dichloro-4-fluorophenyl)-1,4,4,4-tetrafluorobut-1-en-1-yl)-N′-(4,4,4-trifluorobutanoyl)-2-(trifluoromethyl)benzohydrazide] | A (50-100) | A (50-100) | A (80-100) | – |
| CN(NC(=O)c1ccc(/C(F)=C/C(c2ccc(Cl)c(Cl)c2)C(F)(F)F)cc1C(F)(F)F)C(=O)NCC(F)(F)F (stereo not shown) [F15] | A (50-100) | A (50-100) | A (80-100) | – |
| O=C(CCC(F)(F)F)NNC(=O)c1ccc(/C(F)=C/C(c2cc(Br)cc(Br)c2)C(F)(F)F)cc1C(F)(F)F (stereo not shown) [F9, (Z)-4-(3-(3,5-Dibromophenyl)-1,4,4,4-tetrafluorobut-1-en-1-yl)-N′-(4,4,4-trifluorobutanoyl)-2-(trifluoromethyl)benzohydrazide] | A (50-100) | A (50-100) | A (80-100) | – |
| CN(NC(=O)c1ccc(/C(F)=C/C(c2cc(Cl)cc(Cl)c2)C(F)(F)F)cc1C(F)(F)F)C(=O)NCC(F)(F)F (stereo not shown) [F8, (Z)-2-(4-(3-(3,5-Dichlorophenyl)-1,4,4,4-tetrafluorobut-1-en-1-yl)-2-(trifluoromethyl)benzoyl)-1-methyl-N-(2,2,2-trifluoroethyl) hydrazinecarboxamide] | A (50-100) | A (50-100) | A (80-100) | – |
| CN(NC(=O)c1ccc(/C(F)=C/C(c2ccc(Cl)c(Br)c2)C(F)(F)F)cc1C(F)(F)F)C(=O)NCC(F)(F)F (stereo not shown) [PF8] | A (50-100) | A (50-100) | A (80-100) | B (More than 0-Less than 80) |
| CN(NC(=O)c1ccc(/C(F)=C/C(c2cc(Cl)cc(Br)c2)C(F)(F)F)cc1C(F)(F)F)C(=O)NCC(F)(F)F (stereo not shown) [F25, (Z)-2-(4-(3-(3-Bromo-5-chlorophenyl)-1,4,4,4-tetrafluorobut-1-en-1-yl)-2-(trifluoromethyl)benzoyl)-1-methyl-N-(2,2,2-trifluoroethyl)hydrazinecarboxamide] | A (50-100) | A (50-100) | A (80-100) | – |
| CN(NC(=O)c1ccc(/C(F)=C/C(c2cc(Cl)c(F)c(Cl)c2)C(F)(F)F)cc1C(F)(F)F)C(=O)NCC(F)(F)F (stereo not shown) [F22, (Z)-2-(4-(3-(3,5-Dichloro-4-fluorophenyl)-1,4,4,4-tetrafluorobut-1-en-1-yl)-2-(trifluoromethyl)benzoyl)-1-methyl-N-(2,2,2-trifluoroethyl)hydrazinecarboxamide] | A (50-100) | A (50-100) | A (80-100) | – |
| Cc1cc(C(/C=C(\F)c2ccc(C(=O)NN(C)C(=O)NCC(F)(F)F)c(C(F)(F)F)c2)C(F)(F)F)cc(Cl)c1Cl (stereo not shown) [F30, (Z)-2-(4-(3-(3,4-Dichloro-5-methylphenyl)-1,4,4,4-tetrafluorobut-1-en-1-yl)-2-(trifluoromethyl)benzoyl)-1-methyl-N-(2,2,2-trifluoroethyl)hydrazine-1-carboxamide] | A (50-100) | A (50-100) | D (No activity noticed in this bioassay) | – |
| O=C(CCC(F)(F)F)NNC(=O)c1ccc(/C(F)=C/C(c2cc(Br)c(Cl)c(Br)c2)C(F)(F)F)cc1C(F)(F)F (stereo not shown) [F5, (Z)-4-(3-(3,5-dibromo-4-chlorophenyl)-1,4,4,4-tetrafluorobut-1-en-1-yl)-N′-(4,4,4-trifluorobutanoyl)-2-(trifluoromethyl)benzohydrazide] | A (50-100) | A (50-100) | A (80-100) | – |
| CN(NC(=O)c1ccc(/C(F)=C/C(c2ccc(Br)c(Br)c2)C(F)(F)F)cc1C(F)(F)F)C(=O)NCC(F)(F)F (stereo not shown) [F26, (Z)-2-(4-(3-(3,4-Dibromophenyl)-1,4,4,4-tetrafluorobut-1-en-1-yl)-2-(trifluoromethyl)benzoyl)-1-methyl-N-(2,2,2-trifluoroethyl)hydrazinecarboxamide] | B (More than 0-Less than 50) | B (More than 0-Less than 50) | A (80-100) | – |
| O=C(CCC(F)(F)F)NNC(=O)c1ccc(/C(F)=C/C(c2cc(Cl)cc(Cl)c2)C(F)(F)F)cc1C(F)(F)F (stereo not shown) [F6, (Z)-4-(3-(3,5-Dichlorophenyl)-1,4,4,4-tetrafluorobut-1-en-1-yl)-N′-(4,4,4-trifluorobutanoyl)-2-(trifluoromethyl)benzohydrazide] | A (50-100) | A (50-100) | A (80-100) | – |
| O=C(CCC(F)(F)F)NNC(=O)c1ccc(/C(F)=C/C(c2ccc(Cl)c(Cl)c2)C(F)(F)F)cc1C(F)(F)F (stereo not shown) [F7, (Z)-4-(3-(3,4-Dichlorophenyl)-1,4,4,4-tetrafluorobut-1-en-1-yl)-N′-(4,4,4-trifluorobutanoyl)-2-(trifluoromethyl)benzohydrazide] | A (50-100) | A (50-100) | A (80-100) | – |
